Test results published in ChEMBL document CHEMBL1144238, “Identification and SAR around N-{2-[4-(2,3-dihydro-benzo[1,4]dioxin-2-ylmethyl)-[1,4]diazepan-1-yl]-ethyl}-2-phenoxy-nicotinamide, a selective alpha2C adrenergic receptor antagonist” (Bioorg Med Chem Lett, 2008).
Values belong to the compound of their own block, whether it stands above or below them.

Key:
[1] = biological target: T1, Alpha-2A adrenergic receptor (Homo sapiens, UniProt P08913); assay: Binding affinity at human recombinant adrenergic alpha2A receptor expressed in CHO cells by radioligand binding assay; type: cell-based
T1 sequence (P08913 whole entry): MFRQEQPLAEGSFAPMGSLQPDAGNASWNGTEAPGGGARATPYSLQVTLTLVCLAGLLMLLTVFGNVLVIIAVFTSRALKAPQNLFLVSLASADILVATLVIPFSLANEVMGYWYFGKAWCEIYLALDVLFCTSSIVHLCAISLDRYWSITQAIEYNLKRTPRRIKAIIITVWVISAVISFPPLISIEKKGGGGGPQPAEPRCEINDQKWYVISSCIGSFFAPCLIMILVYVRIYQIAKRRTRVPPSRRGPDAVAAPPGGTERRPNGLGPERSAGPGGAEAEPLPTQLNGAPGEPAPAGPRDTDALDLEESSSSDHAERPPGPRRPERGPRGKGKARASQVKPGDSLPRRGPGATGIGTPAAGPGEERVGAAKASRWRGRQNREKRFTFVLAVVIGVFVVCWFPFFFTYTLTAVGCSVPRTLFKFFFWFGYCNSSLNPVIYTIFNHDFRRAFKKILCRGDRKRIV

[2] = biological target: T2, Alpha-2C adrenergic receptor (Homo sapiens, UniProt P18825); assay: Antagonist activity at human recombinant adrenergic Alpha-2C receptor expressed in CHO cells assessed as inhibition of NE-induced calcium mobilization by FLIPR; type: functional, cell-based
T2 sequence (P18825 whole entry): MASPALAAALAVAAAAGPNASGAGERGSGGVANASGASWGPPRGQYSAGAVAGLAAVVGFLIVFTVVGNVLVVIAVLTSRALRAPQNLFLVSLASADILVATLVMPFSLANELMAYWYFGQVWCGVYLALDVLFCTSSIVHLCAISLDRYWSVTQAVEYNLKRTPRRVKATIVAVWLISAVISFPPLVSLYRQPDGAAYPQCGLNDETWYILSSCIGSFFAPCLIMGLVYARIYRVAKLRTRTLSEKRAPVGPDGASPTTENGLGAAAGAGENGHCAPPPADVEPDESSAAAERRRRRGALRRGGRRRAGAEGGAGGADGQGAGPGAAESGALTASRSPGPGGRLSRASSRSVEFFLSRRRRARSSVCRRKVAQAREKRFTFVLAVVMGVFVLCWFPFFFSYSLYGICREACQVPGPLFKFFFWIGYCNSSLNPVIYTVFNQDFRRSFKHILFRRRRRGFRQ

[3] = biological target: T2, Alpha-2C adrenergic receptor; assay: Binding affinity at human recombinant adrenergic Alpha-2C receptor expressed in CHO cells by radioligand binding assay; type: cell-based
[4] = biological target: T3, Alpha-2B adrenergic receptor (Homo sapiens, UniProt P18089); assay: Antagonist activity at human recombinant adrenergic alpha2B receptor expressed in CHO cells assessed as inhibition of NE-induced calcium mobilization by FLIPR; type: functional, cell-based
T3 sequence (P18089 whole entry): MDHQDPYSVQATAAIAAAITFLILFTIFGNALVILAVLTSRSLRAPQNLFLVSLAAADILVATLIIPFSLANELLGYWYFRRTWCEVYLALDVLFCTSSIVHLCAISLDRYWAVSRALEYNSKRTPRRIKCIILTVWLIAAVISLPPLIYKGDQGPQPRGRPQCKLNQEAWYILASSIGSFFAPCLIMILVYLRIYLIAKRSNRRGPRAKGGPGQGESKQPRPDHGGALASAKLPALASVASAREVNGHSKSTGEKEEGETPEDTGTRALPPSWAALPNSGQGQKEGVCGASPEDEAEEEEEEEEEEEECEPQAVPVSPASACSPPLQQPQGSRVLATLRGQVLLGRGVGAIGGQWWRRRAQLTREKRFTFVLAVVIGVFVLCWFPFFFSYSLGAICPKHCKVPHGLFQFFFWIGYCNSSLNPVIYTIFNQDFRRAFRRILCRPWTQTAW

[5] = biological target: T3, Alpha-2B adrenergic receptor; assay: Binding affinity at human recombinant adrenergic alpha2B receptor expressed in CHO cells by radioligand binding assay; type: cell-based
[6] = biological target: T1, Alpha-2A adrenergic receptor; assay: Antagonist activity at human recombinant adrenergic alpha2A receptor expressed in CHO cells assessed as inhibition of NE-induced calcium mobilization by FLIPR; type: functional, cell-based
[7] = organism: Homo sapiens; assay: Selectivity for human recombinant adrenergic Alpha-2C receptor over human recombinant adrenergic alpha2B receptor by radioligand binding assay
[8] = organism: Homo sapiens; assay: Selectivity human recombinant adrenergic Alpha-2C receptor over human recombinant adrenergic alpha2B receptor by FLIPR
[9] = organism: Homo sapiens; assay: Selectivity human recombinant adrenergic Alpha-2C receptor over human recombinant adrenergic alpha2A receptor by FLIPR
[10] = organism: Homo sapiens; assay: Selectivity for human recombinant adrenergic Alpha-2C receptor over human recombinant adrenergic alpha2A receptor by radioligand binding assay
[11] = biological target: Sodium-dependent noradrenaline transporter (Homo sapiens) (UniProt P23975); assay: Binding affinity to human NET
[12] = biological target: Muscarinic acetylcholine receptor M3 (Homo sapiens) (UniProt P20309); assay: Binding affinity to human muscarinic M3 receptor at 10 uM
[13] = biological target: 5-hydroxytryptamine receptor 1A (Homo sapiens) (UniProt P08908); assay: Binding affinity to human 5HT1A receptor
[14] = biological target: D(4) dopamine receptor (Homo sapiens) (UniProt P21917); assay: Binding affinity to human dopamine D4 receptor at 1 uM
[15] = test system: Cerebrospinal fluid; assay: Drug level in Wistar Kyoto rat cerebro spinal fluid at 30 mg/kg, sc; type: ADME, organism-based; design: dose 30 mg/kg, route subcutaneous; conditions: in vivo
[16] = biological target: D(2) dopamine receptor (Homo sapiens) (UniProt P14416); assay: Binding affinity to human dopamine D2 receptor
[17] = biological target: Sodium-dependent dopamine transporter (Homo sapiens) (UniProt Q01959); assay: Binding affinity to human DAT
[18] = test system: Plasma; assay: Drug level in Wistar Kyoto rat plasma at 30 mg/kg, sc; type: ADME, organism-based; design: dose 30 mg/kg, route subcutaneous; conditions: in vivo
[19] = biological target: Muscarinic acetylcholine receptor M2 (Homo sapiens) (UniProt P08172); assay: Binding affinity to human muscarinic M2 receptor
[20] = test system: Plasma; assay: Drug level in Wistar Kyoto rat plasma at 10 mg/kg, sc; type: ADME, organism-based; design: dose 10 mg/kg, route subcutaneous; conditions: in vivo
[21] = biological target: Sodium-dependent serotonin transporter (Homo sapiens) (UniProt P31645); assay: Binding affinity to human SERT
[22] = test system: Brain; assay: Drug level in Wistar Kyoto rat brain at 3 mg/kg, sc; type: ADME, organism-based; design: dose 3 mg/kg, route subcutaneous; conditions: in vivo
[23] = biological target: 5-hydroxytryptamine receptor 7 (Homo sapiens) (UniProt P34969); assay: Binding affinity to human 5HT7 receptor
[24] = test system: Cerebrospinal fluid; assay: Drug level in Wistar Kyoto rat cerebro spinal fluid at 10 mg/kg, sc; type: ADME, organism-based; design: dose 10 mg/kg, route subcutaneous; conditions: in vivo
[25] = test system: Cerebrospinal fluid; assay: Drug level in Wistar Kyoto rat cerebro spinal fluid at 3 mg/kg, sc; type: ADME, organism-based; design: dose 3 mg/kg, route subcutaneous; conditions: in vivo
[26] = biological target: 5-hydroxytryptamine receptor 1B (Homo sapiens) (UniProt P28222); assay: Binding affinity to human 5HT1B receptor at 10 uM
[27] = biological target: 5-hydroxytryptamine receptor 2B (Homo sapiens) (UniProt P41595); assay: Binding affinity to human 5HT2B receptor
[28] = biological target: Histamine H2 receptor (Homo sapiens) (UniProt P25021); assay: Binding affinity to human histamine H2 receptor
[29] = biological target: Histamine H1 receptor (Homo sapiens) (UniProt P35367); assay: Binding affinity to human histamine H1 receptor 1 uM
[30] = biological target: D(3) dopamine receptor (Homo sapiens) (UniProt P35462); assay: Binding affinity to human dopamine D3 receptor
[31] = test system: Plasma; assay: Drug level in Wistar Kyoto rat plasma at 3 mg/kg, sc; type: ADME, organism-based; design: dose 3 mg/kg, route subcutaneous; conditions: in vivo
[32] = biological target: Alpha-1A adrenergic receptor (Homo sapiens) (UniProt P35348); assay: Binding affinity to human adrenergic alpha1A receptor
[33] = biological target: Muscarinic acetylcholine receptor M1 (Homo sapiens) (UniProt P11229); assay: Binding affinity to human muscarinic M1 receptor at 10 uM
[34] = biological target: Alpha-2C adrenergic receptor (Rattus norvegicus) (UniProt P22086); assay: Binding affinity to rat adrenergic Alpha-2C receptor by radioligand binding assay
[35] = biological target: Alpha-2A adrenergic receptor (Rattus norvegicus) (UniProt P22909); assay: Binding affinity to rat adrenergic alpha2A receptor by radioligand binding assay
[36] = test system: Brain; assay: Drug level in Wistar Kyoto rat brain at 30 mg/kg, sc; type: ADME, organism-based; design: dose 30 mg/kg, route subcutaneous; conditions: in vivo
[37] = test system: Brain; assay: Drug level in Wistar Kyoto rat brain at 10 mg/kg, sc; type: ADME, organism-based; design: dose 10 mg/kg, route subcutaneous; conditions: in vivo
[38] = biological target: 5-hydroxytryptamine receptor 2A (Homo sapiens) (UniProt P28223); assay: Binding affinity to human 5HT2A receptor
[39] = biological target: Alpha-2B adrenergic receptor (Rattus norvegicus) (UniProt P19328); assay: Binding affinity to rat adrenergic alpha2B receptor by radioligand binding assay
Sequence of Alpha-2B adrenergic receptor (Rattus norvegicus) (P19328 whole entry): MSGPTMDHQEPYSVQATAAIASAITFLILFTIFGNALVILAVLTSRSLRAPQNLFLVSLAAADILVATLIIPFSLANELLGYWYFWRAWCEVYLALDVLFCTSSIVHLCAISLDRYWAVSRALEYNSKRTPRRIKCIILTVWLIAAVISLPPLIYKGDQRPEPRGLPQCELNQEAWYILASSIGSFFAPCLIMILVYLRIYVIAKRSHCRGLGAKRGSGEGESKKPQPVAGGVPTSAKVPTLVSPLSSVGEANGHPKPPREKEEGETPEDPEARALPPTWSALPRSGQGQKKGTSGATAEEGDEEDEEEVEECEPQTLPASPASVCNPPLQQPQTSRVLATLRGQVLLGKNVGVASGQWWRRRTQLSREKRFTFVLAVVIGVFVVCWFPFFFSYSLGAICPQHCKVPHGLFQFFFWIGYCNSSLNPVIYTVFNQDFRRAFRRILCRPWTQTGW

Sequence of Sodium-dependent serotonin transporter (Homo sapiens) (P31645 whole entry, looked up): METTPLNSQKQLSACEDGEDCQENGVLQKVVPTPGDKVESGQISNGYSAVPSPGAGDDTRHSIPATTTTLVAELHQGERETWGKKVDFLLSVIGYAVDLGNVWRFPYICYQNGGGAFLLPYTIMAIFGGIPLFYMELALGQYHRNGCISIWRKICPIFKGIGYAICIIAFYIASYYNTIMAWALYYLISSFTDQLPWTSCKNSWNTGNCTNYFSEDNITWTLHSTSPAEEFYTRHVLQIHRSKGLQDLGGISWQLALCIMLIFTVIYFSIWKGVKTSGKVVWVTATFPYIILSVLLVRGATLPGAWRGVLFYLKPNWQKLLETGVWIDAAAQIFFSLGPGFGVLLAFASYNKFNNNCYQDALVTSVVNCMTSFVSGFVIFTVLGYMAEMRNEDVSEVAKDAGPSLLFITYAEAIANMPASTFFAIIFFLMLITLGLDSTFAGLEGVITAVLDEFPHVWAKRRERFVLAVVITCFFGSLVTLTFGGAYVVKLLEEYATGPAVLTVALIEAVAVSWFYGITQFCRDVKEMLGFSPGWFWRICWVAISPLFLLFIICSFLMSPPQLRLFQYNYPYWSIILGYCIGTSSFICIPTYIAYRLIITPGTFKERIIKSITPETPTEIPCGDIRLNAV
Sequence of Muscarinic acetylcholine receptor M1 (Homo sapiens) (P11229 whole entry): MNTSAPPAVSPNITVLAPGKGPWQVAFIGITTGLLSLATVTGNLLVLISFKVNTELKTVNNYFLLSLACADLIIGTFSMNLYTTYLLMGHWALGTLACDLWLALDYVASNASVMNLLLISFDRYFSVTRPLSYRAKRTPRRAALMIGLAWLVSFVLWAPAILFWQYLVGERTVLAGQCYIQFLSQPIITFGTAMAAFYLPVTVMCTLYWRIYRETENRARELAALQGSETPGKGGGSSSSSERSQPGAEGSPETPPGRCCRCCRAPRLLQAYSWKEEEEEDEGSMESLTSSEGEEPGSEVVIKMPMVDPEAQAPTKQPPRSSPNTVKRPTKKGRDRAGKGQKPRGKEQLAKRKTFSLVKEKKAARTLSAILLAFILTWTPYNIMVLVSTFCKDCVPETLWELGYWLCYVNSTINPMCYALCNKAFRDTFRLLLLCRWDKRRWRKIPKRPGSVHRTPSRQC
Sequence of Alpha-1A adrenergic receptor (Homo sapiens) (P35348 whole entry): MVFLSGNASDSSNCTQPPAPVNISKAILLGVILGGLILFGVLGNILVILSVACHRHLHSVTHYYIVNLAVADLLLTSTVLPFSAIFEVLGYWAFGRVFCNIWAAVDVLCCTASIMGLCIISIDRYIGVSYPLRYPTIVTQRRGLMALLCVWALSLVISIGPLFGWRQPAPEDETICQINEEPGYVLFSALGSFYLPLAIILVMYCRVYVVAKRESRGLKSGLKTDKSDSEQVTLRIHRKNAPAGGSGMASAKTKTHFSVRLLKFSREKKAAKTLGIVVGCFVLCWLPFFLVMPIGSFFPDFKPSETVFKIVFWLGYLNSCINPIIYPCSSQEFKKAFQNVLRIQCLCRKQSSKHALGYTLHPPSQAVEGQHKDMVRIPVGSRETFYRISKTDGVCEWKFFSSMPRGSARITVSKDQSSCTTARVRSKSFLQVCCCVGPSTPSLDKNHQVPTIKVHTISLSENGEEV
Sequence of 5-hydroxytryptamine receptor 2A (Homo sapiens) (P28223 whole entry): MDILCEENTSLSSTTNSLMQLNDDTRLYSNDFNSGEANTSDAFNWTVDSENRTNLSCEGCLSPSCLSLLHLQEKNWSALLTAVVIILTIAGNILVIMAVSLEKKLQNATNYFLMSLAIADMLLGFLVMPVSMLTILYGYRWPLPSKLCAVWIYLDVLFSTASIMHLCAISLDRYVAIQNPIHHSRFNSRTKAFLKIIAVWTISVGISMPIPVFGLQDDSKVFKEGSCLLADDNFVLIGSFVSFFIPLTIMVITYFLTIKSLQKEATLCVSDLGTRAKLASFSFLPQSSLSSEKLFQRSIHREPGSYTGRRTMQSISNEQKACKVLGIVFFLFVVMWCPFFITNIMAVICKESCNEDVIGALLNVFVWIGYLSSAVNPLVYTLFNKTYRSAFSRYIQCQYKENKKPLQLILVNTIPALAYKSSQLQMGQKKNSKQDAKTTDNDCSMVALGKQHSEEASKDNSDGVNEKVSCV
Sequence of 5-hydroxytryptamine receptor 1A (Homo sapiens) (P08908 whole entry): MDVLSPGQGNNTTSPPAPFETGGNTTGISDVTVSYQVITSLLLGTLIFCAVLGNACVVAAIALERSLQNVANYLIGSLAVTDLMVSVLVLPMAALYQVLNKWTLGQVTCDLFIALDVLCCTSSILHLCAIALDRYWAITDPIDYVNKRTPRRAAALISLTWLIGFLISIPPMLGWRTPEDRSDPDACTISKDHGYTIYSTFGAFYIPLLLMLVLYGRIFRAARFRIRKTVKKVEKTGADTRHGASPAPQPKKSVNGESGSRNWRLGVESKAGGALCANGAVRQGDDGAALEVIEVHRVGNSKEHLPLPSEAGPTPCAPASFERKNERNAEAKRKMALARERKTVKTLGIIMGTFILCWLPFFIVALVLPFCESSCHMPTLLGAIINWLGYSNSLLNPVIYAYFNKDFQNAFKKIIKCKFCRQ
Sequence of 5-hydroxytryptamine receptor 2B (Homo sapiens) (P41595 whole entry): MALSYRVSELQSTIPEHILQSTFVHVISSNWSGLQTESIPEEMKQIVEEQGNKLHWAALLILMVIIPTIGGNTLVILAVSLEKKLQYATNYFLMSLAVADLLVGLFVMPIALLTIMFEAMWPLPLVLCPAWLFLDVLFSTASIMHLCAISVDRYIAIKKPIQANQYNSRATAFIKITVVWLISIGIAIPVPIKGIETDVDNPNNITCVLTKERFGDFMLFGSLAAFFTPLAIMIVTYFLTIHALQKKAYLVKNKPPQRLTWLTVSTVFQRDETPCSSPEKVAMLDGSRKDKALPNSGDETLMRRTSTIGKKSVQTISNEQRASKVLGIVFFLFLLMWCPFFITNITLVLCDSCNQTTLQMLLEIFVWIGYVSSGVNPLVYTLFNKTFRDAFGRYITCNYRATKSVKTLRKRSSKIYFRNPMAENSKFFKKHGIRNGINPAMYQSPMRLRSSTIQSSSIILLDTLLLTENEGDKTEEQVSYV
Sequence of D(3) dopamine receptor (Homo sapiens) (P35462 whole entry): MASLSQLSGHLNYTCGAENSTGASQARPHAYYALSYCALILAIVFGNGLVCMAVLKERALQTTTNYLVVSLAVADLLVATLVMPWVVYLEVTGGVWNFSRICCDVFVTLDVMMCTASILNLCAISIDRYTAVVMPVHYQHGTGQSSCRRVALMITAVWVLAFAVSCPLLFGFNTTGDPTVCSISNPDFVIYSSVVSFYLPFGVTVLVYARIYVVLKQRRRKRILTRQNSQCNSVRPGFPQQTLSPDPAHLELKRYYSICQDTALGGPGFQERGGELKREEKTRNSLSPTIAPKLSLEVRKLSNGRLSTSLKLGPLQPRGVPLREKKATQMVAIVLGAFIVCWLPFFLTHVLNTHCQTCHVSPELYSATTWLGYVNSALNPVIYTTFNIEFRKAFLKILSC
Sequence of Sodium-dependent noradrenaline transporter (Homo sapiens) (P23975 whole entry): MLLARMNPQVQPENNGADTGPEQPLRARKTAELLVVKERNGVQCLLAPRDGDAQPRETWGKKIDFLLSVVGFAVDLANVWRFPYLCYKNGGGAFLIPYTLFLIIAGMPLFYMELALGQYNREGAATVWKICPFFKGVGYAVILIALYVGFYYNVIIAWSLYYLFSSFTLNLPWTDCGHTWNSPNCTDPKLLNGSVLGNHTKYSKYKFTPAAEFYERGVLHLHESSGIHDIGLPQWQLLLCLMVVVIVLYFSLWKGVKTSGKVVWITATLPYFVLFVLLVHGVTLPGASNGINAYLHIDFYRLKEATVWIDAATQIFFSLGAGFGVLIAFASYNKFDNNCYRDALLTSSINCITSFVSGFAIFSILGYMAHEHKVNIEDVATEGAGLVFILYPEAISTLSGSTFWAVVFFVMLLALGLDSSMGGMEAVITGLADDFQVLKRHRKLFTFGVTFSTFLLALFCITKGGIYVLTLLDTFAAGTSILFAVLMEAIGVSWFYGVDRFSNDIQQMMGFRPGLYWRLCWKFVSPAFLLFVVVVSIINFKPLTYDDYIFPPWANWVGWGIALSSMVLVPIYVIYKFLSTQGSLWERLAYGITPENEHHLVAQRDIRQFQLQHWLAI
Sequence of D(4) dopamine receptor (Homo sapiens) (P21917 whole entry): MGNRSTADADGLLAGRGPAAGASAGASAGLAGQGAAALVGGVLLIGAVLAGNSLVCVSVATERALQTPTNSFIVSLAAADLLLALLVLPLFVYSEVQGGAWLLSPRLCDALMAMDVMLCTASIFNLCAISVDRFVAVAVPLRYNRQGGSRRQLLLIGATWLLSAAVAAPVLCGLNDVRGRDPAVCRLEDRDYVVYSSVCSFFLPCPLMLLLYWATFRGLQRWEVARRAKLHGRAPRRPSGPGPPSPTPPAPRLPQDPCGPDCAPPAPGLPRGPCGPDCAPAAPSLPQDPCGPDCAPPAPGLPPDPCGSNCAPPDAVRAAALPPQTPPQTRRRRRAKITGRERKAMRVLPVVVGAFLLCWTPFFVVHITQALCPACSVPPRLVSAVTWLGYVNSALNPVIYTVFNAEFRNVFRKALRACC

Compound: CCCCOc1cccc(C(=O)NCCN2CCCN(CC3COc4ccccc4O3)CC2)n1 (configuration not stated)
Ki [1]: 118 nM | Ki [2]: 3.8 nM | Ki [3]: 0.6 nM | Ki [4]: 14.1 nM | Ki [5]: 10.9 nM | Ki [6]: 48.4 nM | Ratio Ki [7]: 18 | Ratio Ki [8]: 4 | Ratio Ki [9]: 13 | Ratio Ki [10]: 195

Compound: c1ccc(CN2CCN(CC3CCc4ccccc4O3)CC2)cc1 (configuration not stated)
Ki [1]: 146 nM | Ki [2]: 21.1 nM | Ki [3]: 19.6 nM | Ki [4]: 180 nM | Ki [5]: 72.8 nM | Ki [6]: 167 nM | Ratio Ki [7]: 4 | Ratio Ki [8]: 9 | Ratio Ki [9]: 8 | Ratio Ki [10]: 7

Compound: O=C(NCCN1CCN(CC2COc3ccccc3O2)CC1)c1cccnc1Oc1ccccc1 (configuration not stated)
Ki [1]: 27 nM | Ki [3]: 3 nM | Ki [5]: 8 nM | Ratio Ki [7]: 3 | Ratio Ki [10]: 9

Compound: CC(C)(C)Nc1ncccc1C(=O)NCCN1CCCN(CC2COc3ccccc3O2)CC1 (configuration not stated)
Ki [1]: 138 nM | Ki [2]: 30.5 nM | Ki [3]: 0.5 nM | Ki [4]: 103 nM | Ki [5]: 28 nM | Ki [6]: 366 nM | Ratio Ki [7]: 58 | Ratio Ki [8]: 3 | Ratio Ki [9]: 12 | Ratio Ki [10]: 286

Further compounds by falling Ki [3], results first:

Ki [3]: 9.2 nM | Ratio Ki [7]: 12 | Ratio Ki [10]: 53
Compound: O=C(NCCN1CCCN(C[C@@H]2COc3ccccc3O2)CC1)c1cccnc1Oc1ccccc1

Ki [1]: 220 nM | Ki [2]: 25 nM | Ki [3]: 5 nM | Ki [4]: 132 nM | Ki [5]: 49 nM | Ki [6]: 474 nM | Ratio Ki [7]: 10 | Ratio Ki [8]: 5 | Ratio Ki [9]: 19 | Ratio Ki [10]: 44
Compound: O=C(NCCN1CCCN(CC2COc3ccccc3O2)CC1)c1cccnc1Oc1ccccc1 (configuration not stated)

Ki [1]: 94.4 nM | Activity [11]: 1790 nM | Activity [12]: 27% | Activity [13]: 141 nM | Activity [14]: 10% | Drug uptake [15]: 113 ng/mL | Ki [2]: 1.9 nM | Ki [3]: 0.9 nM | Activity [16]: 820 nM | Activity [17]: 3.48 µM | Ki [4]: 31.3 nM | Cp [18]: 6190 ng/mL | Ki [5]: 14.3 nM | Activity [19]: 1600 nM | Ki [6]: > 442 nM | Cp [20]: 2100 ng/mL | Activity [21]: 1480 nM | Drug uptake [22]: 173 ngequiv/g | Activity [23]: 530 nM | Drug uptake [24]: 26.9 ng/mL | Ratio Ki [7]: 16 | Ratio Ki [8]: 16 | Drug uptake [25]: 7.39 ng/mL | Activity [26]: 44% | Activity [27]: 690 nM | Activity [28]: 1900 nM | Activity [29]: 33% | Ratio Ki [9]: > 232 | Activity [30]: 75 nM | Cp [31]: 744 ng/mL | Activity [32]: 59 nM | Activity [33]: 4% | Activity [34]: 1.7 nM | Activity [35]: 177 nM | Drug uptake [36]: 2230 ngequiv/g | Drug uptake [37]: 630 ngequiv/g | Activity [38]: 2400 nM | Activity [39]: 7.6 nM | Ratio Ki [10]: 106
Compound: O=C(NCCN1CCCN(C[C@H]2COc3ccccc3O2)CC1)c1cccnc1Oc1ccccc1
